Experimental data reported in patent publication US7807702B2 (Eli Lilly and Company, priority 2005, dated 2010).
pKi: −log10 of the molar value.

Biological target: T1, cloned human glucagon receptor (Homo sapiens, UniProt P47871)
T1 construct: The hGlucR cDNA is subcloned into the expression plasmid phD; expressed in transfected cells; host or cells: 293 HEK cells, hygromycin-selected; crude plasma membranes
Assay: Glucagon Receptor (hGlucR) Binding Assay
Method: Crude plasma membranes are prepared using cells from suspension culture. […] The second supernate is combined with the first supernate.
The specific activity is 2200 Ci/mmol.

T1 sequence (P47871 26-477): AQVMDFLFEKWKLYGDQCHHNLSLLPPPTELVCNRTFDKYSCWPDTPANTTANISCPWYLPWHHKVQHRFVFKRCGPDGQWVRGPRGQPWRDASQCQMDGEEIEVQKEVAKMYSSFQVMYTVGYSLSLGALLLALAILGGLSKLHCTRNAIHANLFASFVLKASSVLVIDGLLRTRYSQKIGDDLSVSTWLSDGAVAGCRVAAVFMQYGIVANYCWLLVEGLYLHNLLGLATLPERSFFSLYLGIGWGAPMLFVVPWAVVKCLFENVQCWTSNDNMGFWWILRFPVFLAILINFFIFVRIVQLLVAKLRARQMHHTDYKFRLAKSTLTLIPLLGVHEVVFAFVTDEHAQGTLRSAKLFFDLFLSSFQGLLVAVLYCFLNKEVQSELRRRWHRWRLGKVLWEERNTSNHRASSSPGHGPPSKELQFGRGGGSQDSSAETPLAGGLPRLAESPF

CCCC(Sc1cc(C)c(-c2ccc(C(F)(F)F)cc2)c(C)c1)c1ccc(C(=O)NCc2nnn[nH]2)s1 (stereo not shown)
pKi: 7.44
